EC50 data for 13 compounds are collected here from ChEMBL document CHEMBL5126563, “Design, synthesis, in silico studies, and antiproliferative evaluations of novel indolin-2-one derivatives containing 3-hydroxy-4-pyridinone fragment” (Bioorg Med Chem Lett, 2022).

Common to all, as to format: functional, cell-based
For test [1], the system named is MOLM-13. Description: Cytotoxicity against human MOLM-13 cells measured after 48 hrs by MTT assay. The note with it: MOLM-13, 48 h.
Test [2] deals with K562. Briefly: Cytotoxicity against human K562 cells measured after 48 hrs by MTT assay. The note with it: K562, 48 h. Background: Tetrazolium dyes change colour on reduction, which living cells bring about.
Test [3] deals with A549. Briefly: Cytotoxicity against human A549 cells measured after 48 hrs by MTT assay. The note with it: A549, 48 h.
The test system of test [4] is MCF7. Description: Cytotoxicity against human MCF7 cells measured after 48 hrs by MTT assay. The note with it: MCF7, 48 h.

For `N#Cc1cc2cc(CN3CCC(Nc4ncnc5sc(CC(F)(F)F)cc45)CC3)c(O)cc2n1Cc1cn[nH]c1`, the values for the 50% effective concentration (EC50) in test [1] and in test [2] were 140 nM and 2700 nM, respectively.

As to `CC(=O)Nc1ccc(NC(=O)CN2C(=O)/C(=N\NC(=O)Cn3ccc(=O)c(O)c3C)c3ccccc32)cc1`, the half-maximal effective concentration (EC50) in test [3] is greater than 100 µM; in test [4], 51.9 µM.

As to `Cc1c(O)c(=O)ccn1CC(=O)N/N=C1\C(=O)N(CC(=O)Nc2cccc(Cl)c2)c2ccccc21`, the EC50 in test [3] amounted to 28 µM; in test [4] it was 34.6 µM.

On to `Cc1cccc(NC(=O)CN2C(=O)/C(=N\NC(=O)Cn3ccc(=O)c(O)c3C)c3ccccc32)c1C`, for which the 50% effective concentration (EC50) in test [3] was determined as 39.2 µM; in test [4], 51.9 µM.

In the case of `Cc1ccc(NC(=O)CN2C(=O)/C(=N\NC(=O)Cn3ccc(=O)c(O)c3C)c3ccccc32)cc1`, the EC50 in test [3] was determined as 47.5 µM; in test [4], 52.2 µM.

With `Cc1c(O)c(=O)ccn1CC(=O)N/N=C1\C(=O)N(CC(=O)Nc2ccccc2Cl)c2ccccc21`, the EC50 in test [3] was greater than 100 µM; in test [4], 46.4 µM.

With `Cc1c(O)c(=O)ccn1CC(=O)N/N=C1\C(=O)N(CC(=O)Nc2ccc(Cl)cc2Cl)c2ccccc21`, the EC50 in test [1] was 1620 nM; in test [3], 61.5 µM; in test [2], 1810 nM; in test [4], 43.2 µM.

In the case of `Cc1c(O)c(=O)ccn1CC(=O)N/N=C1\C(=O)N(CC(=O)Nc2ccccc2)c2ccccc21`, the 50% effective concentration (EC50) in test [3] was 29.2 µM; in test [4] it was 48.4 µM.

Turning to `Cc1c(O)c(=O)ccn1CC(=O)N/N=C1\C(=O)N(CC(=O)Nc2cc(Cl)cc(Cl)c2)c2ccccc21`, the 50% effective concentration (EC50) was found to be 690 nM in test [1], 22.1 µM in test [3], 1220 nM in test [2] and 35.1 µM in test [4].

As for `Cc1c(O)c(=O)ccn1CC(=O)N/N=C1\C(=O)N(CC(=O)Nc2ccc(Cl)cc2)c2ccccc21`, the half-maximal effective concentration (EC50) was 28.3 µM in test [3] and 31.4 µM in test [4].

In the case of `Cc1c(O)c(=O)ccn1CC(=O)N/N=C1\C(=O)N(CC(=O)Nc2ccc(Br)cc2)c2ccccc21`, the EC50 stood at 1170 nM in test [1], 29.3 µM in test [3], 1850 nM in test [2] and 32.5 µM in test [4].

As to `COc1ccc(NC(=O)CN2C(=O)/C(=N\NC(=O)Cn3ccc(=O)c(O)c3C)c3ccccc32)cc1`, the half-maximal effective concentration (EC50) in test [3] is 78 µM; in test [4], greater than 100 µM.

For the compound `C#Cc1cccc(Nc2ncnc3cc(OCCOC)c(OCCOC)cc23)c1` [ERLOTINIB], the 50% effective concentration (EC50) in test [3] amounted to 0.29 µM; in test [4], 2.83 µM.

What is called EC50 is the concentration needed to bring the measured effect to its halfway point. A low value points to a more potent agent.
